In US6423334B1, “Composition and method for enhancing transport across gastrointestinal tract cell layers” (priority 1997, dated 2002):

How the values were obtained:
Caco-2 monolayers [1] = assay: TEER of Caco-2 monolayers during flux experiments; format: cell-based, human; conditions: for overall decrease in resistance (TEER) of control cells / decrease in TEER: 2 hour flux; for overall decrease in resistance (TEER) of control cells: labelled drug alone, no enhancer
Description: Part a: Caco-2 monolayers (passage 20-40; 20-30 days post seeding on filters) were treated apically for 20-30 min with the 8mM and 40 mM Babassu oil in Hanks+25 mM Hepes. The oil was removed and replaced with Hanks containing 100 IU/ml Kraeber low molecular weight heparin. […] Transepithelial electrical resistance (TEER) measurements were taken at regular intervals for 20 min and subsequently every 30 min after the oil was removed with the Evohmeter (WPI) and chopsticks as shown in Table 4. The results are expressed as mean±S.E. (statistical differences examined using the two sided independent t-test).
(§1) A further 2 hour transepithelial transport study was carried out as above for [^3H]-TRH (0.12 nM) except that excess TRH (cold, 4.4 mM; Bachem, UK) was also administered apically. […] No significant difference between TRH Papp values at low concentrations (0.05-0.1 nM) and high TRH concentrations (4.4 mM) was observed providing evidence of passive TRH absorption across the monolayer.
(§2) Statistically significant differences existed between Babassu TEER results and those of the other oils (2 mM) at each 30 minute interval except between Babassu oil and Almond oil at the T=30 sampling. No significant differences in TEER was observed between Almond oil, Palm Kernel oil and Maize oil. The average 30% reduction in TEER observed for Almond, Palm Kernel and Maize oils at 2 mM during the 2 hour flux was not evident in the presence of Babassu oil (2 mM).

Caco-2 monolayers [2] = conditions: human, Caco-2, 2 h, 0.04 nM, pH 7.4
Description: (§4) The cell monolayers were incubated with prewarmed Hanks balanced salt solution (HBSS modified by adding 1 g glucose/I—final concentration 11 mM glucose and 24 mM Hepes, pH 7.4) at 37° C. for 30 minutes, adding 1 ml to apical and 2 ml to the basolateral side. At T=0, apical HBSS was replaced with 1 ml HBSS containing the mannitol transport solution and the plates were placed in a 37° C. incubator on an orbital shaker. Samples were taken from the apical side at T=0 and T=120 min and from the basolateral side every 30 min. The resulting samples were measured by liquid scintillation spectrophotometry using a Wallac 1409.
(§5) An experiment similar to the above transepithelial transport of mannitol experiment was conducted except that cytochalasin D (1 μg/ml), a potent tight junction opener, was added apically and basolaterally at time zero instead of the Babassu oil.
(§6) Following the procedures of the 2 hour flux experiments of Example 4 above, [^3H]-mannitol (0.04 nM) was added apically to Caco-2 monolayers in the presence of 0.1 mM, 5.0 mM, and 10 mM Almond Oil, 0.1 mM, 2.0 mM, 2.5 mM, 5.0 mM and 10 mM Palm Kernel oil as well as 0.1 mM, 1 mM and 2 mM Maize oil.

in vitro = conditions: human
Description: as §4, §5, §6

[3] = Flux of [3H]-TRH across Caco-2 monolayers; format: in vitro ADME, human; conditions: human, Caco-2
Description: (§3) The cell monolayers were incubated as given in Example 4 above.
as §1, §2

Caco-2 monolayers [4] = assay: Flux of [3H]-TRH across Caco-2 monolayers; format: in vitro ADME, human
Description: as §3, §1, §2

Row | Structure (SMILES) | overall decrease in resistance (TEER) of control cells (Caco-2 monolayers [1]) [%] | % Transport per hour (Caco-2 monolayers [2]) [%] | Papp A→B at 2 h, 0.04 nM (in vitro; Caco-2, pH 7.4, Papp) [×10⁻⁶ cm/s] | Papp A→B at 2 h, 0.04 nM (in vitro; Caco-2, pH 7.4, apparent permeability coefficient (Papp) of mannitol) [×10⁻⁶ cm/s] | reduction in TEER (Caco-2 monolayers [1]; [3H]-TRH 0.12 nM in the presence and absence of excess cold TRH (4.4 mM), 2 hours) | Papp A→B at 2 h, 0.12 nM [3] [×10⁻⁶ cm/s] | Papp A→B at 2 h, 0.2 nM [3] [×10⁻⁶ cm/s] | TRH transported across the Caco-2 monolayer (Caco-2 monolayers [4]; Caco-2) [%] | decrease in TEER (Caco-2 monolayers [1]; Cytochalasin D with [3H]-TRH) [%] | decrease in TEER (Caco-2 monolayers [1]; Cytochalasin D with [3H]-mannitol) [%] | reduction in TEER (Caco-2 monolayers [1]; cytochalasin D 1 μg/ml apically and basolaterally, mannitol flux) [%] | initial reduction in TEER (Caco-2 monolayers [1]; cytochalasin D 1 μg/ml, TRH flux, first hour) [%] | additional reduction in TEER (Caco-2 monolayers [1]; cytochalasin D 1 μg/ml, TRH flux, remaining hour) [%] | apparent permeability coefficient (Papp) of TRH (Caco-2 monolayers [4]; in the presence of cytochalasin D 1 μg/ml) [×10⁻⁶ cm/s]
1 | OC[C@@H](O)[C@@H](O)[C@H](O)[C@H](O)CO [mannitol, mannitol, D -[1-^3H (n)]] | 12.8 | 0.28 | 0.79 ± 0.03 | 0.79 |  |  |  |  |  |  |  |  |  | 
2 | NC(=O)[C@@H]1CCCN1C(=O)[C@H](Cc1cnc[nH]1)NC(=O)[C@@H]1CCC(=O)N1 [TRH, Thyrotropin releasing hormone] | 29.2 |  |  |  | approximately 20% | 0.53 | 0.72 ± 0.025 | 0.2 |  |  |  |  |  | 
3 | C=C1[C@@H](C)[C@H]2[C@H](Cc3ccccc3)NC(=O)[C@]23[C@H](OC(C)=O)/C=C/[C@@](C)(O)C(=O)[C@@H](C)C/C=C/[C@H]3[C@@H]1O [cytochalasin D] |  |  |  |  |  |  |  |  | 50 | 59 | 60 | 40 | 22 | 5.7
